The values below are quoted from earlier work in patent US12161733B2, “Chemical conjugates of Evans Blue derivatives and their use as radiotherapy and imaging agents for targeting prostate cancer” (THE UNITED STATES OF AMERICA, AS REPRESENTED BY THE …, priority 2018, dated 2024).

The data set has as its system prostate cancer patients.

Take `O=C([O-])CN1CCN(CC(=O)[O-])CCN(CC(=O)NCC2CCC(C(=O)N[C@@H](Cc3ccc4ccccc4c3)C(=O)NCCCC[C@H](NC(=O)N[C@@H](CCC(=O)O)C(=O)O)C(=O)O)CC2)CCN(CC(=O)[O-])CC1.[177Lu+3]` (some centres unmarked) [^177Lu-PSMA-617]: the side effects entry (long-term toxicity unknown) was “only stage 1-2 hematologic toxicities and sporadically mild xerostomia and fatigue”. For the setting “up to 3 cycles, response limited to as few as several weeks in some patients”, the partial response rates is listed as 70%-80%.
